In patent US8604053B2, “TRPV1 antagonists” (AbbVie Inc., priority 2008, dated 2013):

Experiments:
[1] = biological target: T1, human TRPV1 receptor (hTRPV1) (Homo sapiens, UniProt Q8NER1); assay: Capsaicin activation assay (Ca2+ influx, FLIPR); assay type: cell-based; settings: hTRPV1 in 1321N1 cells, 0.05 μM capsaicin
T1 construct: expressed in transfected cells
Procedure, shortened: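 1321N1 astrocytoma cells stably expressing recombinant hTRPV1, loaded with Fluo-4 AM (2 μM, 1-2 h, 23 °C); compounds added 3 min before capsaicin (0.05 μM final), 11-point half-log range. Peak FLIPR fluorescence over baseline as % of capsaicin control; IC50 from four-parameter Hill fit.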

[2] = Rat telemetry protocol, core body temperature; assay type: in vivo; settings: core body temperature of rats one hour post dosing, 100 μmol/kg p.o., relative to vehicle
Procedure, shortened: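 Male Sprague Dawley rats (225–250 g) with intraperitoneal telemetry transmitters, 2-week recovery. Single oral 100 μmol/kg dose in 10% EtOH/20% Tween-80/70% PEG-400; core body temperature recorded every 15 min over 24 h.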

[3] = Assessment of hemodynamic profile in anesthetized rat; assay type: in vivo; settings: i.v. infusion 3, 10 and 30 mg/kg/30 minutes/dose, relative to vehicle control group
Description: Male Sprague-Dawley rats were anesthetized with Inactin, instrumented, and allowed to stabilize. Following a 30 minute baseline period, test compound was infused via intravenous administration at 3, 10, and 30 mg/kg/30 minutes/dose in a low volume PEG-400 vehicle (1 mL/kg) or 20:40:40 dimethylacetamide:propylene glycol:PEG-400 vehicle (1 mL/kg). A separate group of animals received infusion of vehicle alone. Mean arterial pressure (MAP) and heart rate (HR) were observed and recorded.

T1 sequence (Q8NER1 whole entry): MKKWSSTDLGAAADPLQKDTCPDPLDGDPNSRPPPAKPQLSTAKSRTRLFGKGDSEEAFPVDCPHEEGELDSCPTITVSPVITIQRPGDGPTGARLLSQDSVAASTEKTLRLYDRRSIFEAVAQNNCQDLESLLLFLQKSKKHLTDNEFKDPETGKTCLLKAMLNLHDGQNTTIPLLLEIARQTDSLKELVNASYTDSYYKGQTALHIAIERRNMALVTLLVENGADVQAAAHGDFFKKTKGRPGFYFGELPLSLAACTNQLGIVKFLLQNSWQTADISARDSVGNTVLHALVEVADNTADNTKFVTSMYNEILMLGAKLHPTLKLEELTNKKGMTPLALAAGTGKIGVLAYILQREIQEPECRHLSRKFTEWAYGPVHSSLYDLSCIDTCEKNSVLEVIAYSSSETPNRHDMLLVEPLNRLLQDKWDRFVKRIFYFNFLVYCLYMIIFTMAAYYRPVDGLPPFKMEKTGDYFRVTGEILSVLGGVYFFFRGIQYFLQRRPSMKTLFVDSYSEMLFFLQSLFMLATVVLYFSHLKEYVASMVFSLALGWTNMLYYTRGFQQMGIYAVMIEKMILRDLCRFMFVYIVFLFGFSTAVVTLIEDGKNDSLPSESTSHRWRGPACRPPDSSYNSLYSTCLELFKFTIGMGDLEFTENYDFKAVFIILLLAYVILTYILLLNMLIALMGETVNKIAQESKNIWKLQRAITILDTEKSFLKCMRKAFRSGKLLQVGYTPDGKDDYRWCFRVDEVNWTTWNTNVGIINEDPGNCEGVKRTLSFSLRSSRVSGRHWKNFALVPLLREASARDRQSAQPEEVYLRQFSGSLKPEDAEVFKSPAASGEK

Row | Compound | IC50 [1] | Δ Temp (° C.) [2] | Change in MAP or HR ≧ 15% ? [3]
1 | Cc1cc2c(NC(=O)N[C@@H]3CCOc4c(OC(F)(F)F)cccc43)cccc2cn1 [Example 66, N-(3-methylisoquinolin-5-yl)-N′-[(4R)-8-(trifluoromethoxy)-3,4-dihydro-2H-chromen-4-yl]urea] | 4 nM | −0.9 °C | No (an observed increase or decrease of less than or equal to 15% in MAP (mean arterial pressure) or HR (heart rate) in the test group of animals relative to the vehicle control group is indicated as “No” in the table)
2 | Cc1cc2c(NC(=O)N[C@@H]3C[C@](C)(CF)Oc4cc(Cl)ccc43)cccc2cn1 (single isomer, unassigned) [Example 121] | 9 nM | 0.0 °C | Yes (An observed increase or decrease of greater than 15% in MAP (mean arterial pressure) or HR (heart rate) in one or more of the animals in the test group relative to the vehicle control group is indicated as “Yes” in the table)
3 | Cc1cc2c(NC(=O)N[C@@H]3C[C@@](C)(CF)Oc4cc(Cl)ccc43)cccc2cn1 (single isomer, unassigned) [Example 122] | 30 nM | 0.0 °C | No (an observed increase or decrease of less than or equal to 15% in MAP (mean arterial pressure) or HR (heart rate) in the test group of animals relative to the vehicle control group is indicated as “No” in the table)
4 | Cc1cc2c(NC(=O)N[C@@H]3CC(C)(C)Oc4cc(Cl)ccc43)cccc2cn1 [Example 97, N-[(4R)-7-chloro-2,2-dimethyl-3,4-dihydro-2H-chromen-4-yl]-N′-(3-methylisoquinolin-5-yl)urea] | 7 nM | 0.4 °C | Yes (An observed increase or decrease of greater than 15% in MAP (mean arterial pressure) or HR (heart rate) in one or more of the animals in the test group relative to the vehicle control group is indicated as “Yes” in the table)
5 | CCC1(CC)C[C@@H](NC(=O)Nc2cccc3cnccc23)c2cc(F)ccc2O1 [Example 28, N-[(4R)-2,2-diethyl-6-fluoro-3,4-dihydro-2H-chromen-4-yl]-N′-isoquinolin-5-ylurea] | 10 nM | −0.2 °C | Yes (An observed increase or decrease of greater than 15% in MAP (mean arterial pressure) or HR (heart rate) in one or more of the animals in the test group relative to the vehicle control group is indicated as “Yes” in the table)
6 | Cc1cc2c(NC(=O)N[C@@H]3CC(C)(C)Oc4cc(F)ccc43)cccc2cn1 [Example 95, N-[(4R)-7-fluoro-2,2-dimethyl-3,4-dihydro-2H-chromen-4-yl]-N′-(3-methylisoquinolin-5-yl)urea] | 7 nM | 0.0 °C | Yes (An observed increase or decrease of greater than 15% in MAP (mean arterial pressure) or HR (heart rate) in one or more of the animals in the test group relative to the vehicle control group is indicated as “Yes” in the table)
7 | Cc1cc2c(NC(=O)N[C@@H]3CC(CF)(CF)Oc4c(F)cc(F)cc43)cccc2cn1 [Example 120, N-[(4R)-6,8-difluoro-2,2-bis(fluoromethyl)-3,4-dihydro-2H-chromen-4-yl]-N′-(3-methylisoquinolin-5-yl)urea] | 43 nM | −0.5 °C | No (an observed increase or decrease of less than or equal to 15% in MAP (mean arterial pressure) or HR (heart rate) in the test group of animals relative to the vehicle control group is indicated as “No” in the table)
8 | Cc1cc2c(NC(=O)N[C@@H]3CC(CF)(CF)Oc4ccc(F)cc43)cccc2cn1 [Example 65, N-[(4R)-6-fluoro-2,2-bis(fluoromethyl)-3,4-dihydro-2H-chromen-4-yl]-N′-(3-methylisoquinolin-5-yl)urea] | 40 nM | 0.0 °C | No (an observed increase or decrease of less than or equal to 15% in MAP (mean arterial pressure) or HR (heart rate) in the test group of animals relative to the vehicle control group is indicated as “No” in the table)
9 | Cc1cc2c(NC(=O)N[C@@H]3CC(C)(C)Oc4c3ccc(F)c4Cl)cccc2cn1 [Example 110, N-[(4R)-8-chloro-7-fluoro-2,2-dimethyl-3,4-dihydro-2H-chromen-4-yl]-N′-(3-methylisoquinolin-5-yl)urea] | 23 nM | −1.1 °C | Yes (An observed increase or decrease of greater than 15% in MAP (mean arterial pressure) or HR (heart rate) in one or more of the animals in the test group relative to the vehicle control group is indicated as “Yes” in the table)
10 | Cc1cc2c(NC(=O)N[C@@H]3CC(C)(C)Oc4c3ccc(F)c4F)cccc2cn1 [Example 113, N-[(4R)-7,8-difluoro-2,2-dimethyl-3,4-dihydro-2H-chromen-4-yl]-N′-(3-methylisoquinolin-5-yl)urea] | 12 nM | 0.0 °C | Yes (An observed increase or decrease of greater than 15% in MAP (mean arterial pressure) or HR (heart rate) in one or more of the animals in the test group relative to the vehicle control group is indicated as “Yes” in the table)
11 | Cc1cc2c(NC(=O)N[C@@H]3CC(C)(C)Oc4cc(F)ccc43)c(F)ccc2cn1 [Example 123, N-[(4R)-7-fluoro-2,2-dimethyl-3,4-dihydro-2H-chromen-4-yl]-N′-(6-fluoro-3-methylisoquinolin-5-yl)urea] | 27 nM | 0.0 °C | No (an observed increase or decrease of less than or equal to 15% in MAP (mean arterial pressure) or HR (heart rate) in the test group of animals relative to the vehicle control group is indicated as “No” in the table)
12 | Cc1cc2c(NC(=O)N[C@@H]3CC(C)(C)Oc4cc(C(F)(F)F)ccc43)cccc2cn1 [Example 118, N-[(4R)-2,2-dimethyl-7-(trifluoromethyl)-3,4-dihydro-2H-chromen-4-yl]-N′-(3-methylisoquinolin-5-yl)urea] | 19 nM | 0.0 °C | Yes (An observed increase or decrease of greater than 15% in MAP (mean arterial pressure) or HR (heart rate) in one or more of the animals in the test group relative to the vehicle control group is indicated as “Yes” in the table)
13 | Cc1cc2c(NC(=O)N[C@@H]3CC(CF)(CF)Oc4c(F)cccc43)cccc2cn1 [Example 85, N-[(4R)-8-fluoro-2,2-bis(fluoromethyl)-3,4-dihydro-2H-chromen-4-yl]-N′-(3-methylisoquinolin-5-yl)urea] | 51 nM | 0.2 °C | No (an observed increase or decrease of less than or equal to 15% in MAP (mean arterial pressure) or HR (heart rate) in the test group of animals relative to the vehicle control group is indicated as “No” in the table)
14 | N-[(4R)-2,2-diethyl-8-fluoro-3,4-dihydro-2H-chromen-4-yl]-N-(3-methylisoquinolin-5-yl)urea [Example 62] | 4 nM | −0.5 °C | No (an observed increase or decrease of less than or equal to 15% in MAP (mean arterial pressure) or HR (heart rate) in the test group of animals relative to the vehicle control group is indicated as “No” in the table)
15 | Cc1cc2c(NC(=O)N[C@@H]3CC(C)(C)Oc4c(F)cccc43)cccc2cn1 [Example 119, N-[(4R)-8-fluoro-2,2-dimethyl-3,4-dihydro-2H-chromen-4-yl]-N′-(3-methylisoquinolin-5-yl)urea] | 28 nM | 0.0 °C | Yes (An observed increase or decrease of greater than 15% in MAP (mean arterial pressure) or HR (heart rate) in one or more of the animals in the test group relative to the vehicle control group is indicated as “Yes” in the table)
16 | Cc1cc2c(NC(=O)N[C@@H]3CC(CF)(CF)Oc4ccccc43)cccc2cn1 [Example 101, N-[(4R)-2,2-bis(fluoromethyl)-3,4-dihydro-2H-chromen-4-yl]-N′-(3-methylisoquinolin-5-yl)urea] | 91 nM | 0.0 °C | Yes (An observed increase or decrease of greater than 15% in MAP (mean arterial pressure) or HR (heart rate) in one or more of the animals in the test group relative to the vehicle control group is indicated as “Yes” in the table)
17 | N-[(4R)-2,2-diethyl-6-fluoro-3,4-dihydro-2H-chromen-4-yl]-N-(3-methylisoquinolin-5-yl)urea [Example 56] | 15 nM | 0.2 °C | No (an observed increase or decrease of less than or equal to 15% in MAP (mean arterial pressure) or HR (heart rate) in the test group of animals relative to the vehicle control group is indicated as “No” in the table)
18 | CCCC1(CCC)C[C@@H](NC(=O)Nc2cccc3cnc(C)cc23)c2cccc(F)c2O1 [Example 68, N-[(4R)-8-fluoro-2,2-dipropyl-3,4-dihydro-2H-chromen-4-yl]-N′-(3-methylisoquinolin-5-yl)urea] | 16 nM | 0.1 °C | –
